Reference: patent US20240383881A1, “SYNTHETIC COMPOUND OF MYRICETIN AND NOBILETIN, AND PREPARATION METHOD THEREFOR” (The Second People's Hospital of Shenzhen (Shenzhen …, priority 2023, published 2024)
pIC50: −log10 of the molar value.

Experiments:
[1] = patients with hyperuricemia; Wang Yong et al. 2010; cited from earlier work
mice with hyperuricemia = assay: yeast extract feed-induced hyperuricemia model in KM mice; type: in vivo, KunMing (KM) mice; conditions: 30 mg/kg intragastric daily for 9 weeks; for serum UA levels vs model group: P<0.001, P<0.001, P<0.01; for serum creatinine level vs model group / serum urea nitrogen level vs model group: P<0.001; for serum urea nitrogen level vs model group: FIG. 2B; for liver index vs model group: FIG. 3B, P<0.001, P<0.05, P<0.01; for renal pathological morphology (HE staining): renal tissue, x200; for kidney index vs model group: FIG. 3A, P<0.05 (synthetic compound), P<0.001 (nobiletin)
Description: Specific pathogen free (SPF) grade KunMing (KM) mice, male, aged 5-6 weeks, weighing 22-25 g, are provided by Medical Experimental Animal Center of Guangdong Province with an animal qualification certificate number: SCXK (Yue) 2022-0002. The mice are raised in plastic cages, with free diet and drinking water. The indoor temperature of the plastic cages is (22±2)° C., and a relative humidity is maintained at 55%±5%. The lights are turned on and turned off for 12 hours, respectively. After quarantine and adaptation for one week, relevant experiments are conducted. The experimental plan is reviewed and approved by the Animal Welfare Ethics Committee of Zhongke Industry Holdings (Shenzhen) Co., Ltd. (application number: 20220082), and the operation and process of animal experiments follow the “Guidelines for the use of experimental animals in teaching” of the Chinese Society of Experimental Animals. Customized dietary feeds: 15% of yeast extract feeds, in compliance with regulations of GB13078 and GB14924.2, are provided by Jiangsu Synergy Pharmaceutical Biotechnology Co., Ltd. Production license: Su Si Zheng (2019) 01008. After 2 weeks of adaptive feeding in the plastic cages, the SPF grade KM mice are randomly divided into five groups: normal group (Control), model group (Model), synthetic compound group (PJW), myricetin group (Myricetin), and nobiletin group (Nobiletin). The dosage of each individual test medicine group is 30 milligrams per kilogram (mg/kg), and the medicines are dissolved in a 0.5% carboxymethyl cellulose sodium solution with a gavage volume of 10 milliliters per kilogram (mL/kg). Except for the normal group fed with basic feed, the other groups are fed with 15% of the yeast extract feeds for modeling. The normal group and the model group are intragastrically administered an equal amount of physiological saline daily, and the other groups are intragastrically administered with the corresponding medicine daily for 9 weeks. At the end of the experiment, that is, at the end of the 9th week of administration, the KM mice are fasted for 12 hours, then the KM mice are anesthetized with the isoflurane to take off the eyeballs from the KM mice for blood collection, followed by placing the collected blood to stand in the room temperature for 1 hour. After the standing, the blood is centrifuged at 3500 revolutions per minute (rpm/min) for 15 minutes to obtain centrifuged solutions, respectively, then serums of the centrifuged solution are separated to detect the levels of the uric acid, the creatinine, the urea nitrogen. The KM mice are sacrificed by dislocation of cervical vertebra after collecting blood, livers and kidneys are dissected from the KM mice and weighed to calculate indexes of the livers and the kidneys, an organ index of the formula is as follows: organ index=organ weight (g)/body mass (g)×100%. Then the livers and the kidneys are quickly packed, one portion of the packed sample is fixed with 4% paraformaldehyde solution for HE staining, and the other portion of the packed sample is stored at −80° C. in a refrigerator for later use. The renal tissues fixed with 4% paraformaldehyde from the kidneys are taken to be dehydrated with ethanol, embedded in paraffin, and sliced. After staining with hematoxylin-eosin, the pathological changes of renal tissues are observed under an upright optical microscope. All data are statistically analyzed using a GraphPad Prism 7.00 software, and the data are presented as a mean value±a standard error (standard deviation±standard error of the mean abbreviated as SD±SEM). Multiple group comparisons are conducted using a one-way Analysis of Variance (ANOVA), and pairwise comparisons between groups are conducted using a Dunnett's test. P<0.05 indicates a statistically significant difference.

[2] = biological target: T1, organic anion transporter 4 (OAT4) (Homo sapiens, UniProt Q9NSA0); conditions: OAT4 overexpressed monoclonal cell line; Wang Ze et al. 2019; read-out: half-maximal inhibitory concentration (IC50) on OAT4; cited from earlier work
T1 sequence (Q9NSA0 1-550): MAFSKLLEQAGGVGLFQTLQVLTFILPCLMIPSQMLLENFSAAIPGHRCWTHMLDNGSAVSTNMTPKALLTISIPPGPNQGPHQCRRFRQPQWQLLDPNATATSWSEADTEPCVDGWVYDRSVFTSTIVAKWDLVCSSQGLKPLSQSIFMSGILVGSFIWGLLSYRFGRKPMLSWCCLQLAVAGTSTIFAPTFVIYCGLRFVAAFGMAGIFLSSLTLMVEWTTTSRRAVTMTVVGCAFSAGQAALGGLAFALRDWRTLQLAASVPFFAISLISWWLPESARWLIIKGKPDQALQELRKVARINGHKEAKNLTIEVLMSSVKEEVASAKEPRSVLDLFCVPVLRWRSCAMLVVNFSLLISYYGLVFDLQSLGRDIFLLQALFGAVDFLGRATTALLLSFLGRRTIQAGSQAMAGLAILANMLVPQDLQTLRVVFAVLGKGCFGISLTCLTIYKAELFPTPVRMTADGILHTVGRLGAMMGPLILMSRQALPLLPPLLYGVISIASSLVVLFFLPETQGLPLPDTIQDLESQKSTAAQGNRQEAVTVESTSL

Structure (SMILES)	serum uric acid (UA) levels in patients [1]	serum UA levels vs model group (mice with hyperuricemia; FIG. 1)	serum creatinine level vs model group (mice with hyperuricemia; FIG. 2A)	serum urea nitrogen level vs model group (mice with hyperuricemia)	liver index vs model group (mice with hyperuricemia)	renal pathological morphology (HE staining) (mice with hyperuricemia; FIG. 4)	pIC50 [2]	kidney index vs model group (mice with hyperuricemia)	serum UA effect compared with monomer groups (mice with hyperuricemia; FIG. 1)	effect on creatinine compared with monomer medicines (mice with hyperuricemia; FIG. 2A)	organ index effect compared with monomer groups (mice with hyperuricemia; FIGS. 3A-3B)	improvement of renal pathological morphology compared with monomer medicines (mice with hyperuricemia; HE staining, FIG. 4)
O=c1c(O)c(-c2cc(O)c(O)c(O)c2)oc2cc(O)cc(O)c12 [myricetin]	significantly reduce	significantly reduced	significantly reduced	significantly reduced	significantly reduced	improve renal injury						
COc1ccc(-c2cc(=O)c3c(OC)c(OC)c(OC)c(OC)c3o2)cc1OC [nobiletin]		significantly reduced	significantly reduced	significantly reduced	significantly reduced	improve renal injury	6.25	significantly reduced				
COc1cc(OC)c2c(=O)c(OCCCC(=O)Oc3c(-c4ccc(OC)c(OC)c4)oc4c(OC)c(OC)c(OC)c(OC)c4c3=O)c(-c3cc(OC)c(OC)c(OC)c3)oc2c1 [synthetic compound]		significantly reduced	significantly reduced	significantly reduced	significantly reduced	improve renal injury		significantly reduced	better than that of each monomer group	better than that of monomer medicines	better than that of each monomer group	better than that of monomer medicines
